Experimental findings from patent publication US6506799B1, “Methods of treating cardiovascular diseases, dyslipidemia, dyslipoproteinemia, and hypertension with ether compounds” (Esperion Therapeutics, Inc., priority 1999, dated 2003) are described below.

In assay [1] the test system is primary rat hepatocytes. The assay is described as follows: Synthesis of non-saponified and saponified lipids (14C-acetate incorporation) in hepatocytes. Type of assay: cell-based. As to conditions: 100 μM; 14C-acetate 2 hr; vs no compound control. As to the method:
A male Sprague-Dawley rat was anesthetized by administration of sodium pentobarbitol by intraparitoneal injection at 50 mg/kg. In situ perfusion of the liver was performed as follows. […] To digest the liver, DSC solution (6.7 mM KCl, 143 mM NaCl, 9.2 mM Na HEPES, 5 mM CaCl2-2H2O, 1.7 mM Fructose, 0.029 mM Phenol red, 0.2% BSA, 100 U/ml collagenase Type I, 93 U/ml Hyaluronidase, 160 BAEE/ml trypsin inhibitor, pH 7.5) was perfused through the liver at a flow rate of 30 ml/min for 6 minutes at a temperature of 37° C. After digestion, cells were dispersed in a solution of DMEM-(DMEM containing 2 mM GlutMax-1, 0.2% BSA, 5% FBS, 12 nM insulin, 1.2 μM hydrocortisone) to stop the digestion process. The crude cell suspension was filtered through three layers of stainless steel mesh with pore sizes of 250, 106, and 75 μm respectively. Filtered cells were centrifuged at 50×g for two minutes and the supernatant discarded. The resulting cell pellet was resuspended in DMEM and centrifuged again. This final cell pellet was resuspended in DMEM+HS solution (DMEM containing 2 mM GlutMax-1, 20 nM delta-aminolevulinic acid, 17.4 mM MEM non-essential amino acids, 20% FBS, 12 nM insulin, 1.2 µM hydrocortisone) and plated to form monolayer cultures at a density of 100×10^3 cells/cm^2 on collagen coated culture dishes. Four hours after initial plating, media was changed to DMEM+(DMEM containing 2 mM GlutMax-1, 20 nM delta-aminolevulinic acid, 17.4 mM MEM non-essential amino acids, 10% FBS, 12 nM insulin, 1.2 μM hydrocortisone) and remained on cells overnight.
To test the effect of illustrative compounds of the invention on synthesis rates of non-saponified and saponified lipids, the monolayer cultures were exposed to 1 μM of lovastatin or 100 μM Compound A, B, D, E or F in DMEM+ containing 1 μCi/ml ^14C-acetate. Control cells were exposed to the same media lacking lovastatin or the test compounds. All cells were exposed to 0.1% DMSO. Metabolic labeling with ^14C-acetate continued for 2 hr at 37° C. After labeling, cells were washed twice with 1 ml of PBS followed by lysing in 1 ml of deionized water. Cells were scraped from the dishes, transferred to glass tubes and sonicated. 2.5 ml of 2:1 chloroform/methanol mixture was added followed by 1.5 ml of Phosphate Buffered Saline (PBS). To correct for extraction efficiency in the upcoming extractions, 3000 dpm of ^3H-cholesterol was added to each tube. Tubes were shaken for 30 min. to extract lipids into the organic phase followed by centrifugation for 10 minutes at 1000×g to separate the organic and aqueous phases. The lower organic phase containing total lipids was removed and placed in a new tube. The organic solution was evaporated under N2. […]

Assay [2] concerns LDL receptor deficient mice. Description: Lipoprotein cholesterol profile in LDL receptor-deficient mice. It counts as in vivo. The settings on record: 300 mg/kg/day, chow-fed female mice. The text has this:
The effect of Compound A on LDL levels in a murine model of homozygous familial hypercholesterolemia (Ishibashi et al., 1993, J. Clin. Invest. 92:883-893; Ishibashi et al., 1994, J. Clin. Invest. 93:1885-1893) was studied. LDL receptor-deficient mice have elevated LDL cholesterol relative to wild type mice when fed a chow diet. When fed cholesterol-enriched diets, these mice develop atherosclerosis.

Assay [3] concerns 3T3-L1 cells. Description: Insulin sensitization: 14C-acetate incorporation into lipids in 3T3-L1 preadipocytes. Type of assay: cell-based. The settings on record: preadipocytes treated 4 days; insulin-dependent (30 nM insulin); FIG. 20. As to the method:
The effects of Compound A on rate of differentiation of 3T3-L1 cells from a “committed pre-adipocyte” to an “adipocyte” phenotype in the absence or presence of insulin is tested. The differentiation of 3T3-L1 cells to an adipocyte-like phenotype is highly dependent upon insulin. […] In this assay the degree of differentiation was a reflection of the rate of lipid synthesis, as measured through incorporation of ^14C-acetate over 2 hours.
3T3-L1 stem cells were induced to differentiate with dexamethasone, isobutylmethylxanthine and insulin (Green and Kehinde, 1975, Cell 5:19-27). Cells were plated in Dulbecco's modified Eagle medium containing 10% calf serum and grown to confluence. Cells were then refreshed with 10% fetal calf serum, and treated with 0.5 mM isobutylmethylxanthine and 250 nM dexamethasone, but no additional insulin, for 48 hours. […]
The preadipocytes were then treated for 4 days with various concentrations of Compound A in 5% fetal calf serum in Dulbecco's modified Eagles medium, with or without a submaximal concentration of insulin (30 nM). […] Cell were then washed with phosphate buffered saline, lysed with 0.1 N NaOH, and ^14C-acetate incorporation into lipids was determined using phase separation and liquid scintillation counting.

Structures are written as SMILES.

`CC(C)(CO)CCCCOCCCCC(C)(C)CO` [Compound A, 6-(6-hydroxy-5,5-dimethylhexyloxy)-2,2-dimethyl-hexan-1-ol]: in assay [1], the “reduction of the rate of non-saponified lipid synthesis” value is “at least 85%” and the “reduction of the rate of saponified lipid synthesis” value is given as “at least 85%”. The LDL cholesterol entry in assay [2] (after one week of treatment) is “rapid and significant reduction”. The HDL entry in assay [2] (seven daily treatments) was “HDL elevation in all treated mice”. Moreover, in assay [3], the “increase of 14C-acetate incorporation into lipids” value was “approximately 40%”.
